Source: ChEMBL document CHEMBL1817586, “N-(1,3-Diaryl-3-oxopropyl)amides as a new template for xanthine oxidase inhibitors” (Bioorg Med Chem, 2011)

How the values were obtained:
[1] = target: Xanthine dehydrogenase/oxidase (Bos taurus, UniProt P80457); assay: Inhibition of bovine milk xanthine oxidase assessed as decrease of uric acid formation preincubated for 5 mins by UV-visible spectrophotometric analysis
[2] = tested on: Mus musculus; assay: Antihyperuricemic activity in Swiss mouse assessed as decrease of potassium oxonate-induced uric acid level in serum at 20 mg/kg, ip after 3 hrs by HPLC analysis (reference value: 7.80 +/- 0.34 uM); type: functional; details: route intraperitoneal
[3] = tested on: Mus musculus; assay: Antihyperuricemic activity in Swiss mouse assessed as decrease of potassium oxonate-induced uric acid level in serum at 10 mg/kg, ip after 3 hrs by HPLC analysis (reference value: 7.80 +/- 0.34 uM); type: functional; details: route intraperitoneal
[4] = tested on: Mus musculus; assay: Antihyperuricemic activity in Swiss mouse assessed as decrease of potassium oxonate-induced uric acid level in serum at 50 mg/kg, ip after 3 hrs by HPLC analysis (reference value: 7.80 +/- 0.34 uM); type: functional; details: route intraperitoneal

Xanthine dehydrogenase/oxidase, sequence (P80457 whole entry): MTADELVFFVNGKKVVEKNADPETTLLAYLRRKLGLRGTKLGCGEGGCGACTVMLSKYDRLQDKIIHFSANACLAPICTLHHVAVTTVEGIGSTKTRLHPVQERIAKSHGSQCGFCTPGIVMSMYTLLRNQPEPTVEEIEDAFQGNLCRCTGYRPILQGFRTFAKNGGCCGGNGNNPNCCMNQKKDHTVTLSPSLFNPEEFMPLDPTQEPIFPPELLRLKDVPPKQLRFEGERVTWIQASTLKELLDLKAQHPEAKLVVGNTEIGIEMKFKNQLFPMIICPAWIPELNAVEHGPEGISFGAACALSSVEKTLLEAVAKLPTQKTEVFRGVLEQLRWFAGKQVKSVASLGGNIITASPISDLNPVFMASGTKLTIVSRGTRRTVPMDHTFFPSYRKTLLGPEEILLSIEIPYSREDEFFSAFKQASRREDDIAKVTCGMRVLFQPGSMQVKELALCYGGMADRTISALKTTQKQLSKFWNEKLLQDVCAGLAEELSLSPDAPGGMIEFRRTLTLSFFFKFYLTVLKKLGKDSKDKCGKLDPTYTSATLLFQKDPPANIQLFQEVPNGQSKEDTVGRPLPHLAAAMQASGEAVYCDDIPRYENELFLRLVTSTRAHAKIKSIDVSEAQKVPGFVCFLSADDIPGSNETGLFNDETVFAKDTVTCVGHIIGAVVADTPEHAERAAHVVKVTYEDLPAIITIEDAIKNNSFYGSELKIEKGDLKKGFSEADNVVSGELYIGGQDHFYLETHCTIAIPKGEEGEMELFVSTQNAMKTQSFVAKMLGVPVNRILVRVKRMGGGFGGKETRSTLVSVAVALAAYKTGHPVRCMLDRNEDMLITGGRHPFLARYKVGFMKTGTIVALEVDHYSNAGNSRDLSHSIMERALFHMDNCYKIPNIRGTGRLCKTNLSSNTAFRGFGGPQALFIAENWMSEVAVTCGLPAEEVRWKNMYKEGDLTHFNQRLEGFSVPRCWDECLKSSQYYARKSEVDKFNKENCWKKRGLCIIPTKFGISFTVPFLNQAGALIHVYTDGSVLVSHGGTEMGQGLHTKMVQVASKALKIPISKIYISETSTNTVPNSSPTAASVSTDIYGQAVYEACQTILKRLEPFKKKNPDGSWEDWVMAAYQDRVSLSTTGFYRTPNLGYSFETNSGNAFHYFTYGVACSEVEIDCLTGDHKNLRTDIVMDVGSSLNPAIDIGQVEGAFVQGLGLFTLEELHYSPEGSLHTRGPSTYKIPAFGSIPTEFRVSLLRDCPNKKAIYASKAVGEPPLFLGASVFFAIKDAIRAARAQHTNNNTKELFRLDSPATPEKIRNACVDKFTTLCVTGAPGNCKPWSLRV

IC50 [1]	Compound	also measured
42.2 µM	CC(=O)NC(CC(=O)c1cccc2ccccc12)c1cccc(Br)c1 (centres undefined)	–
59 µM	CC(=O)NC(CC(=O)c1ccccc1)c1cccc2ccccc12 (centres undefined)	–
69.2 µM	CC(=O)Nc1cccc(C(=O)CC(/C=C/c2ccccc2)NC(C)=O)c1 (centres undefined)	–
44.3 µM	COc1ccc(C(CC(=O)c2ccccc2)NC(C)=O)cc1OC (centres undefined)	–
20 µM	COc1ccc(OC)c(C(CC(=O)c2cc(Cl)cs2)NC(C)=O)c1 (centres undefined)	–
58.1 µM	O=C(CC(NC(=O)c1ccccc1)c1ccccc1)c1ccccc1 (centres undefined)	–
40 µM	CC(=O)NC(CC(=O)c1cccc2ccccc12)c1ccccc1 (centres undefined)	–
27 µM	CC(=O)NC(CC(=O)c1cccs1)c1ccccc1 (centres undefined)	–
28.1 µM	CC(=O)NC(CC(=O)c1ccccc1)c1cccc(Br)c1 (centres undefined)	–
42 µM	CC(=O)NC(CC(=O)c1ccc(Cl)cc1)c1ccccc1 (centres undefined)	–
22 µM	CC(=O)NC(CC(=O)c1cc(Cl)cs1)c1ccc(Cl)cc1 (centres undefined)	–
45.4 µM	CC(=O)NC(CC(=O)c1ccc([N+](=O)[O-])cc1)c1ccc(Cl)cc1 (centres undefined)	–
43.6 µM	O=C(CC(NC(=O)c1ccccc1)c1cccc([N+](=O)[O-])c1)c1ccccc1 (centres undefined)	–
28.5 µM	CC(=O)NC(CC(=O)c1ccccc1)c1ccc([N+](=O)[O-])cc1 (centres undefined)	–
32.3 µM	CC(=O)NC(CC(=O)c1ccccc1)c1ccccc1[N+](=O)[O-] (centres undefined)	–
78.3 µM	CC(=O)NC(/C=C/c1ccccc1)CC(=O)c1ccccc1 (centres undefined)	–
32 µM	CC(=O)Nc1cccc(C(=O)CC(NC(C)=O)c2cccc([N+](=O)[O-])c2)c1 (centres undefined)	–
46.1 µM	COc1ccc(C(CC(=O)c2ccccc2)NC(C)=O)c(OC)c1OC (centres undefined)	–
29 µM	CC(=O)NC(CC(=O)c1ccccc1)c1ccc(C#N)cc1 (centres undefined)	–
41 µM	CC(=O)NC(CC(=O)c1ccc(Cl)cc1)c1ccc(Cl)cc1 (centres undefined)	–
19.8 µM	CC(=O)NC(CC(=O)c1cc(C)sc1C)c1cccc([N+](=O)[O-])c1 (centres undefined)	–
48 µM	CC(=O)NC(CC(=O)c1ccc([N+](=O)[O-])cc1)c1ccccc1 (centres undefined)	–

IC50 [1]	Compound	also measured
21.7 µM	CC(=O)NC(CC(=O)c1cc(C)sc1C)c1ccc(Cl)cc1 (centres undefined)	–
48.2 µM	COc1cc(C(CC(=O)c2ccccc2)NC(C)=O)cc(OC)c1OC (centres undefined)	–
2.45 µM	CC(=O)NC(CC(=O)c1ccc2ccccc2c1)c1cccc(Br)c1 (centres undefined)	Activity [2]: 2.96 µM; Activity [3]: 3.21 µM; Activity [4]: 2.18 µM
52.6 µM	COc1ccc(C(CC(=O)c2ccc([N+](=O)[O-])cc2)NC(C)=O)cc1 (centres undefined)	–
15.2 µM	CC(=O)NC(CC(=O)c1ccco1)c1cccc([N+](=O)[O-])c1 (centres undefined)	Activity [2]: 7.01 µM; Activity [3]: 7.13 µM; Activity [4]: 6.98 µM
53 µM	CC(=O)NC(CC(=O)c1ccccc1)c1ccc2ccccc2c1 (centres undefined)	–
91.6 µM	C[N+](=O)C(CC(=O)c1ccccc1)c1c2ccccc2cc2ccccc12 (centres undefined)	–
26.2 µM	CC(=O)NC(CC(=O)c1ccccc1)c1cccc([N+](=O)[O-])c1 (centres undefined)	–
38.3 µM	CC(=O)NC(CC(=O)c1ccccc1)c1ccccc1 (centres undefined)	–
43.2 µM	COc1ccc(OC)c(C(CC(=O)c2cccc(NC(C)=O)c2)NC(C)=O)c1 (centres undefined)	–
45 µM	COc1ccc(C(CC(=O)c2ccccc2)NC(C)=O)cc1 (centres undefined)	–
44 µM	CC(=O)NC(CC(=O)c1cccc2ccccc12)c1cccc([N+](=O)[O-])c1 (centres undefined)	–
26 µM	CC(=O)NC(CC(=O)c1ccco1)c1ccccc1 (centres undefined)	–
63 µM	CC(=O)NC(CC(=O)c1ccccc1)c1ccco1 (centres undefined)	–
–	Oc1ncnc2[nH]ncc12 [ALLOPURINOL]	Activity [2]: 2.93 µM; Activity [3]: 3.19 µM; Activity [4]: 2.17 µM
41.8 µM	CC(=O)Nc1cccc(C(=O)CC(NC(C)=O)c2ccc(Cl)cc2)c1 (centres undefined)	–
8.5 µM	CC(=O)NC(CC(=O)c1ccc2ccccc2c1)c1ccccc1 (centres undefined)	Activity [2]: 4.22 µM; Activity [3]: 4.26 µM; Activity [4]: 4.14 µM
44.6 µM	CC(=O)NC(CC(=O)c1ccc(Cl)cc1)c1ccc(C)cc1 (centres undefined)	–
27.1 µM	CC(=O)NC(CC(=O)c1ccccc1)c1ccc(Cl)cc1 (centres undefined)	–
44 µM	COc1ccc(OC)c(C(CC(=O)c2ccccc2)NC(C)=O)c1 (centres undefined)	–
65 µM	CC(=O)NC(CC(=O)c1ccccc1)c1cccs1 (centres undefined)	–
